Test results as given in patent US20230203045A1, “INHIBITORS OF NEK7 KINASE” (Halia Therapeutics, Inc., priority 2020, published 2023).
pIC50: −log10 of the molar value.

These compounds were tested on IL-1β release (assay: IL-1β Release Assay). Details: Homo sapiens; PMA-differentiated THP-1 cells, 250 ng/mL LPS then 20 μM nigericin; cleaved IL-1β in media; read-out: I1-1β release IC50.
Format: cell-based
Description: Approximately 1.5 million THP-1 cells were plated in each well of a 6-well TC plate and incubated with 40 nM PMA in RPMI (10% FBS, 1% Penstrep) for 24 hours. The media was then removed and cells were rested in RPMI (10% FBS, 1% Penstrep) for 24 hours after which time the media was removed and cells were pre-treated for 2 hours with various concentrations of compounds of interest (typically serial 3-fold dilution in RPMI+5% FBS, concentrations ranging from 1 μM to 0.5 nM) in RPMI (5% FBS). The media was again removed and cells were incubated with 250 ng/mL LPS and compounds of interest (concentrations as above) in RMPI (5% FBS) for 2 hours. The media was removed for a last time and cells were incubated with 20 μM nigericin and compounds of interest (concentrations as above) in Opti-MEM for 30 minutes. Cell media was then collected and the amount of cleaved IL-1β was determined using a JESS instrument (Protein Simple) and standard protocols. Cleaved Il-1β antibody was obtained from Cell Signaling (catalogue #83186S) and was used at 1:20 dilution in antibody diluent 2. Protein Simple 1× anti-Rabbit HRP secondary antibody was used along with Protein Simple luminol and peroxide for chemiluminescent detection. Primary antibody incubation time was increased from 30 minutes to 60 minutes.
Nc1ncnc2c1c(-c1ccc(NC(=O)Nc3cc(C4(C(F)(F)F)CC4)no3)c(F)c1)nn2C1CC1 [Example 21, 1-(4-(4-amino-1-cyclopropyl-1H-pyrazolo[3,4-d]pyrimidin-3-yl)-2-fluorophenyl)-3-(3-(1-(trifluoromethyl)cyclopropyl)isoxazol-5-yl)urea] gave a pIC50 greater than 7.30. CC(C)(C)c1cc(NC(=O)Nc2ccc(-c3nn(C4COC4)c4ncnc(N)c34)cc2F)on1 [Example 12, 1-(4-(4-amino-1-(oxetan-3-yl)-1H-pyrazolo[3,4-d]pyrimidin-3-yl)-2-fluorophenyl)-3-(3-(tert-butyl)isoxazol-5-yl)urea] showed a pIC50 of 6.70 to 7.29. With CC1(c2cc(NC(=O)Nc3ccc(-c4nn(C5CC5)c5ncnc(N)c45)cc3F)on2)CC1 [Example 32, 1-(4-(4-amino-1-cyclopropyl-1H-pyrazolo[3,4-d]pyrimidin-3-yl)-2-fluorophenyl)-3-(3-(1-methylcyclopropyl)isoxazol-5-yl)] the pIC50 was 6.70 to 7.29. CC(C)(C)c1cc(NC(=O)Nc2ccc(-c3nn(C4CCN(C5COC5)CC4)c4ncnc(N)c34)cc2F)on1 [Example 14, 1-(4-(4-amino-1-(1-(oxetan-3-yl)piperidin-4-yl)-1H-pyrazolo[3,4-d]pyrimidin-3-yl)-2-fluorophenyl)-3-(3-(tert-butyl)isoxazol-5-yl)urea] showed a pIC50 greater than 7.30. Nc1nccc2c1c(-c1ccc(NC(=O)Nc3cc(C4(C(F)(F)F)CC4)no3)c(F)c1)nn2C1CC1 [Example 45, 1-(4-(4-amino-1-cyclopropyl-1H-pyrazolo[4,3-c]pyridin-3-yl)-2-fluorophenyl)-3-(3-(1-(trifluoromethyl)cyclopropyl)isoxazol-5-yl)urea] gave a pIC50 of 6.70 to 7.29. CC(C)(C)c1cc(NC(=O)Nc2ccc(-c3nn(C4CC4)c4ncnc(N)c34)cc2F)on1 [Example 13, 1-(4-(4-amino-1-cyclopropyl-1H-pyrazolo[3,4-d]pyrimidin-3-yl)-2-fluorophenyl)-3-(3-(tert-butyl)isoxazol-5-yl)urea] showed a pIC50 greater than 7.30. For CC(C)(C)c1nnc(NC(=O)Nc2ccc(-c3nn(C4CC4)c4ncnc(N)c34)cc2F)s1 [Example 33, 1-(4-(4-amino-1-cyclopropyl-1H-pyrazolo[3,4-d]pyrimidin-3-yl)-2-fluorophenyl)-3-(5-(tert-butyl)-1,3,4-thiadiazol-2-yl)], the pIC50 was 6.30 to 6.70. CC(C)(C)c1cc(NC(=O)Nc2ccc(-c3nn(C4CC4)c4ccnc(N)c34)cc2F)on1 [Example 30, 1-(4-(4-amino-1-cyclopropyl-1H-pyrazolo[4,3-c]pyridin-3-yl)-2-fluorophenyl)-3-(3-(tert-butyl)isoxazol-5-yl)urea] showed a pIC50 greater than 7.30. Compound Nc1ncnc2c1c(-c1ccc(NC(=O)Nc3cc(C4(C(F)(F)F)CC4)on3)c(F)c1)nn2C1CC1 [Example 25, 1-(4-(4-amino-1-cyclopropyl-1H-pyrazolo[3,4-d]pyrimidin-3-yl)-2-fluorophenyl)-3-(5-(1-(trifluoromethyl)cyclopropyl)isoxazol-3-yl)urea] has a pIC50 of 6.70 to 7.29.

The compounds below were run against T1, full-length recombinant human NEK7 (Homo sapiens, UniProt Q8TDX7) (assay: NEK7 Enzymatic Assay). Details: casein substrate, [33P]-ATP, 2 hours at room temperature.
T1 construct: full-length recombinant human NEK7; GST (N); purchased SignalChem Nab 09-10G; host or cells: Sf9 insect cells (baculovirus)
T1 sequence (Q8TDX7 whole entry): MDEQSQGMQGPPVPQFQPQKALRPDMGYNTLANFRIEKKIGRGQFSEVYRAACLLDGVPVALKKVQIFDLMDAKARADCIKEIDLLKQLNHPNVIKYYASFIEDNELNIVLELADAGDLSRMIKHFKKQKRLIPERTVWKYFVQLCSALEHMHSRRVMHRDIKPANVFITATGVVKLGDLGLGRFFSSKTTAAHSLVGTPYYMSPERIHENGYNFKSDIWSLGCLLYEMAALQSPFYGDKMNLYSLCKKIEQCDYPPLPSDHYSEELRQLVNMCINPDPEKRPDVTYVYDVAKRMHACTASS
Format: biochemical
Description: Casein substrate (from bovine milk, hydrolyzed and partially dephosphorylated mixture of α, β and κ caseins, obtained from Sigma Aldrich, catalogue #C4765, diluted in distilled water to a final concentration of 1 mg/mL) and full-length recombinant human NEK7 (expressed by baculovirus in Sf9 insect cells using a N-terminal GST tag, obtained from SignalChem, catalogue #Nab 09-10G, 0.1 μg/μL) were mixed in assay buffer (20 mM Hepes pH 7.5, 10 mM MgCl2, 1 mM EGTA, 0.02% Brij35, 0.02 mg/ml BSA, 0.1 mM Na3VO4, 2 mM DTT, 1% DMSO). Compounds of interest (serial 3-fold dilution in DMSO from 10 μM to 0.5 nM) or vehicle (1% DMSO) were dispensed into the kinase reaction mixture by Acoustic technology (Echo550; nanoliter range). After incubation at room temperature for 20 minutes, the kinase reaction was initiated by addition of [^33P]-ATP (specific activity 10 μCi/μl) and the mixture was incubated at room temperature for 2 hours. The reaction was then stopped by spotting the reaction mixture on strips of phosphocellulose P81 paper. Following washing, the radioactivity of the P81 paper was measured and kinase activity data were expressed as the percent remaining kinase activity in test samples compared to vehicle reactions. IC50 values and curve fits were obtained using Prism (GraphPad Software).
Nc1ncnc2c1c(-c1ccc(NC(=O)Nc3cc(CO)no3)c(F)c1)nn2C1CC1 [Example 53, 1-(4-(4-amino-1-cyclopropyl-1H-pyrazolo[3,4-d]pyrimidin-3-yl)-2-fluorophenyl)-3-(3-(hydroxymethyl)isoxazol-5-yl)urea] was tested, and the pIC50 was less than 6.30. Nc1nccc2c1c(-c1ccc(NC(=O)Nc3cc(C4(C(F)(F)F)CC4)on3)c(F)c1)nn2C1CC1 [Example 61, 1-(4-(4-amino-1-cyclopropyl-1H-pyrazolo[4,3-c]pyridin-3-yl)-2-fluorophenyl)-3-(5-(1-(trifluoromethyl)cyclopropyl)isoxazol-3-yl)urea] was tested, and the pIC50 was less than 6.30. Compound CC(C)(O)Cn1nc(-c2ccc(NC(=O)Nc3cc(C4(C(F)(F)F)CC4)on3)c(F)c2)c2c(N)ncnc21 [Example 67, 1-(4-(4-amino-1-(2-hydroxy-2-methylpropyl)-1H-pyrazolo[3,4-d]pyrimidin-3-yl)-2-fluorophenyl)-3-(5-(1-(trifluoromethyl)cyclopropyl)isoxazol-3-yl)urea] has a pIC50 of 6.30 to 6.52. CC(C)(F)c1cc(NC(=O)Nc2ccc(-c3nn(C4CC4)c4ncnc(N)c34)cc2F)on1 [Example 27, 1-(4-(4-amino-1-cyclopropyl-1H-pyrazolo[3,4-d]pyrimidin-3-yl)-2-fluorophenyl)-3-(3-(2-fluoropropan-2-yl)isoxazol-5-yl)urea] was tested, and the pIC50 was less than 6.30. CC(C)(C)c1nnc(NC(=O)Nc2ccc(-c3nn(C4CC4)c4ncnc(N)c34)cc2F)s1 [Example 33, 1-(4-(4-amino-1-cyclopropyl-1H-pyrazolo[3,4-d]pyrimidin-3-yl)-2-fluorophenyl)-3-(5-(tert-butyl)-1,3,4-thiadiazol-2-yl)] gave a pIC50 of less than 6.30. In the case of CC(C)(C#N)c1cc(NC(=O)Nc2ccc(-c3nn(C4CC4)c4ncnc(N)c34)cc2F)on1 [Example 52, 1-(4-(4-amino-1-cyclopropyl-1H-pyrazolo[3,4-d]pyrimidin-3-yl)-2-fluorophenyl)-3-(3-(2-cyanopropan-2-yl)isoxazol-5-yl)urea], the pIC50 was greater than 6.82. CN1CC(n2nc(-c3ccc(NC(=O)Nc4cc(C5(C(F)(F)F)CC5)on4)c(F)c3)c3c(N)ncnc32)C1 [Example 68, 1-(4-(4-amino-1-(1-methylazetidin-3-yl)-1H-pyrazolo[3,4-d]pyrimidin-3-yl)-2-fluorophenyl)-3-(5-(1-(trifluoromethyl)cyclopropyl)isoxazol-3-yl)urea] showed a pIC50 of less than 6.30. For CC(C)(C)c1nnc(NC(=O)Nc2ccc(-c3nn(C4CC4)c4ncnc(N)c34)cc2F)o1 [Example 36, 1-(4-(4-amino-1-cyclopropyl-1H-pyrazolo[3,4-d]pyrimidin-3-yl)-2-fluorophenyl)-3-(5-(tert-butyl)-1,3,4-oxadiazol-2-yl)urea], the pIC50 was less than 6.30. Compound Nc1ncnc2c1c(-c1ccc(NC(=O)Nc3cc(C4(C(F)(F)F)CC4)on3)c(CO)c1)nn2C1CC1 [Example 63, 1-(4-(4-amino-1-cyclopropyl-1H-pyrazolo[3,4-d]pyrimidin-3-yl)-2-(hydroxymethyl)phenyl)-3-(5-(1-(trifluoromethyl)cyclopropyl)isoxazol-3-yl)urea] has a pIC50 of less than 6.30. With CCc1cc(NC(=O)Nc2ccc(-c3nn(C4CC4)c4ncnc(N)c34)cc2F)on1 [Example 42, 1-(4-(4-amino-1-cyclopropyl-1H-pyrazolo[3,4-d]pyrimidin-3-yl)-2-fluorophenyl)-3-(3-ethylisoxazol-5-yl)urea] the pIC50 was 6.52 to 6.82.
